In patent US20120184006A1, “Reductase Enzymes” (UTAH STATE UNIVERSITY, priority 2011, published 2012):

T1: fatty acyl-CoA reductase (FACoAR) from M. aquaeolei VT8 (Marinobacter nauticus (Marinobacter aquaeolei), UniProt A1U3L3)
T1 sequence (A1U3L3 1-661): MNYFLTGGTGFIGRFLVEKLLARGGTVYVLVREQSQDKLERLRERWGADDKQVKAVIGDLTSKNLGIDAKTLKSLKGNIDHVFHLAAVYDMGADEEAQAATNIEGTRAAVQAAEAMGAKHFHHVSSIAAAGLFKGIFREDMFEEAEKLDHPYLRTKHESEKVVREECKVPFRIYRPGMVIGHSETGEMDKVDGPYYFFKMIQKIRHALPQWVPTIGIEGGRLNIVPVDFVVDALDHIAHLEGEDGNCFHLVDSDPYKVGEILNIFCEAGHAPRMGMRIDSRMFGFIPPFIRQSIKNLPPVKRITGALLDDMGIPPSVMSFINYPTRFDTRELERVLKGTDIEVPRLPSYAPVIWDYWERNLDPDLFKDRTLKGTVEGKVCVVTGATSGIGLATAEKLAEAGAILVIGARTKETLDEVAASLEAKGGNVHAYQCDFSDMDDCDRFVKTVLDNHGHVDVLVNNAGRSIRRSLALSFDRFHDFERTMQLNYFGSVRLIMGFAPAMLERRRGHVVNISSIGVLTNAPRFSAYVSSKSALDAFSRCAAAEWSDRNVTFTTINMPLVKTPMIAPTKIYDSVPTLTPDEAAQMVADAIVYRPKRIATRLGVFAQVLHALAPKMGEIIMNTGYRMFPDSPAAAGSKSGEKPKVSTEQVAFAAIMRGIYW


Tests used:
[1] = biological target: T1, fatty acyl-CoA reductase (FACoAR) from M. aquaeolei VT8; test: Continuous spectrophotometric NADPH assay (decrease of NADPH at 340 nm); format: biochemical; conditions: for Rate of Reaction (nmol NADP^+ min^−1 mg proten^−1): 60 μm of the respective aldehyde as substrate; for % Specific Activity of Decanal: percent of the specific activity of decanal, 60 μm aldehyde
Protocol: (§1) All assays were conducted in a total volume of 1 mL. A buffer containing 50 mM NaCl, 20 mM Tris-HCl pH 7.0, and 0.5 mg/mL BSA was prepared along with a 1 mM stock of aldehyde dissolved in dimethyl sulfoxide (DMSO) or a 0.1 mM stock of the acyl-CoA, and […] NADPH. All components including protein were degassed in sealed vials and placed under an argon atmosphere. NADPH was degassed as the solid prior to the addition of degassed buffer. Each assay was conducted by adding 75 μL of the NADPH stock, 58 μg protein for acyl-CoA assays or 15 μg protein for aldehyde assays, varying concentrations of aldehyde or acyl-CoA and buffer to bring the final volume to 1 mL. Each sample was continuously monitored for the decrease of NADPH at 340 nm on a Varian 50 Bio UV-visible spectrophotometer (Walnut Creek, Calif.). Initial rates were calculated in Excel using the linear initial rates of reaction obtained from the spectrophotometric assays by obtaining the slope from the best. In line and calculating nmol of NADPH oxidized per second. (Microsoft, Redmond, Wash.). These initial rates were used to calculate Km and Vmax values using the Igor Pro software package (Wavemetrics, Lake Oswego, Oreg.) fitting the initial rates to the Hill equation (31). NADPH specific activity assays were conducted identically as described above using a fixed 60 μM concentration of the various aldehyde substrates or 6 μM of the various acyl-CoA substrates.

[2] = biological target: T1, fatty acyl-CoA reductase (FACoAR) from M. aquaeolei VT8; test: Continuous spectrophotometric DTNB assay (release of free CoA); format: biochemical; conditions: for Rate of Reaction (nmol NTB^2− min^−1 mg protein^−1): 6 μM of the respective CoA as substrate; for % Specific Activity of Palmitoyl-CoA: percent of the specific activity of palmitoyl-CoA, 6 μM substrate
Protocol: Buffers and solutions were prepared as described above for NADPH assays. Each assay was conducted by adding 75 μL of the 2 mg/mL NADPH stock solution in buffer, 58 μg of protein, and 10 μL of a 10 mg/mL solution of DTNB in DMSO, varying concentrations of acyl-CoA and buffer to bring the volume to 1 mL. Reduction of acyl-CoA substrate was monitored by following the increase of the 2-nitro-5-thiobenzoate (NTB^2−) dianion concentration at 412 nm. […] These initial rates were used to calculate the apparent K, and Vmax values using the Igor Pro (Wavemetrics, Lake Oswego, Oreg.) software package fitting the initial rates to the Hill equation (Equation 1) where v is the initial velocity, Vmax is the maximum calculated velocity, [S]^n is the concentration of substrate and n is the Hill coefficient, K0.5^n is the approximation of Km or the approximate substrate concentration at which half of Vmax is obtained at a specific value of the Hill coefficient n. In the case of enzyme inhibition, a modified version of the Hill equation allowing for cooperative inhibition (Equation 2) where all of the coefficients are defined as for the Hill equation and the additional [i]^n is the concentration of inhibitor and n is the Hill coefficient. The Ki^n is the approximate concentration of inhibitor it takes to double the K0.5 at a specific value of the Hill coefficient n.

[3] = system: FALDR (fatty aldehyde reductase) from M. aquaeolei VT8; conditions: previously tested enzyme, aldehyde substrate; cited from earlier work
M. aquaeolei VT8 FACoAR = test: Addition of detergents and reducing agents to the FACoAR kinetic assay; format: biochemical, Marinobacter aquaeolei VT8; conditions: varying concentrations (isopropanol 5%)
From the text: As part of our characterization, we attempted to alleviate the sigmoidal response of activity to substrate concentration by the addition of reducing agents and detergents. In the case of another type of acyl-CoA reductase, HMG-CoA reductase, the addition of reducing agents and/or detergents could limit, but not eliminate the sigmoidal kinetics related to cooperative binding. […] This seems to indicate the potential of some inter- or intra-protein interaction that is necessary for the activity to occur. To further investigate this possibility, the protein was analyzed by size exclusion chromatography to determine the native weight of the protein.

[4] = substrate: CCCC/C=C\CCCCCCCCCC=O; test: Continuous spectrophotometric NADPH assay (decrease of NADPH at 340 nm); format: biochemical, Marinobacter aquaeolei VT8; conditions: pH 7.0
Protocol: as §1

[5] = substrate: CCCCCCCCCCCCCCCC(=O)SCCNC(=O)CCNC(=O)[C@H](O)C(C)(C)COP(=O)(O)OP(=O)(O)OC[C@H]1O[C@@H](n2cnc3c(N)ncnc32)[C@H](O)[C@@H]1OP(=O)(O)O; test: as above; format: biochemical, Marinobacter aquaeolei VT8; conditions: other: FIG. 5, NADPH assay, acyl-CoA substrate; pH 7.0
Protocol: as §1

[6] = substrate: CCCCCCCCCCCCCCCC(=O)SCCNC(=O)CCNC(=O)[C@H](O)C(C)(C)COP(=O)(O)OP(=O)(O)OC[C@H]1O[C@@H](n2cnc3c(N)ncnc32)[C@H](O)[C@@H]1OP(=O)(O)O; test: Continuous spectrophotometric DTNB assay (release of free CoA); format: biochemical, Marinobacter aquaeolei VT8
[7] = running text b50, fatty aldehyde reduction
[8] = other: FIG. 6, NADPH assay, aldehyde substrate

Row | Molecule | Rate of Reaction (nmol NADP^+ min^−1 mg proten^−1) [1] | % Specific Activity of Decanal [1] | Rate of Reaction (nmol NTB^2− min^−1 mg protein^−1) [2] | % Specific Activity of Palmitoyl-CoA [2] | other results
1 | O=Cc1ccc2ccccc2c1 [2-Naphthaldehyde] | 5280 ± 10 nmol NADP^+ min^−1 mg proten^−1 | 3% |  |  | 
2 | CC=O [Acetaldehyde] | 54 ± 6.0 nmol NADP^+ min^−1 mg proten^−1 | <1% |  |  | 
3 | CCCCC/C=C\C/C=C\C/C=C\C/C=C\CCCC(=O)SCCNC(=O)CCNC(=O)[C@H](O)C(C)(C)COP(=O)(O)OP(=O)(O)OC[C@H]1O[C@@H](n2cnc3c(N)ncnc32)[C@H](O)[C@@H]1OP(=O)(O)O [Arachidonoyl-CoA] |  |  | 50.7 ± 3.66 nmol NTB^2− min^−1 mg protein^−1 | 93% | 
4 | CCCC/C=C\CCCCCCCCCC=O [Cis-11-hexadecenal] | 9910 ± 600 nmol NADP^+ min^−1 mg proten^−1 | 63% |  |  | Km [3]: 177 µM; Vmax [3]: approximately 60 nmols min^−1 mg^−1; n (Hill coefficient) ([1]; FIG. 6, NADPH assay, aldehyde substrate): 2±0.8; Km ([1]; fatty aldehyde reduction, read-out: Km (Hill equation)): 25 µM; Vmax [1, 7]: ~10 µmol/min/mg; cooperativity n [1, 7]: ~2
5 | CCCCCCCCCC=O [Decanal] | 15800 ± 860 nmol NADP^+ min^−1 mg proten^−1 | 100% |  |  | 
6 | CCCCCCCCCCCC=O [Dodecanal] | 11700 ± 250 nmol NADP^+ min^−1 mg proten^−1 | 74% |  |  | 
7 | CCCCCC=O [Hexanal] | 1540 ± 30.0 nmol NADP^+ min^−1 mg proten^−1 | 10% |  |  | 
8 | CCCCCCCCCCCC(=O)SCCNC(=O)CCNC(=O)[C@H](O)C(C)(C)COP(=O)(O)OP(=O)(O)OC[C@H]1O[C@@H](n2cnc3c(N)ncnc32)[C@H](O)[C@@H]1OP(=O)(O)O [Lauroyl-CoA] |  |  | 44.0 ± 6.3 nmol NTB^2− min^−1 mg protein^−1 | 80% | 
9 | CCCCCCCCCCCCCC(=O)SCCNC(=O)CCNC(=O)[C@H](O)C(C)(C)COP(=O)(O)OP(=O)(O)OC[C@H]1O[C@@H](n2cnc3c(N)ncnc32)[C@H](O)[C@@H]1OP(=O)(O)O [Myristoyl-CoA] |  |  | 34.1 ± 2.1 nmol NTB^2− min^−1 mg protein^−1 | 58% | 
10 | CCCCCCCC=O [Octanal] | 5200 ± 1500 nmol NADP^+ min^−1 mg proten^−1 | 33% |  |  | 
11 | CCCCCCCC(=O)SCCNC(=O)CCNC(=O)[C@H](O)C(C)(C)COP(=O)(O)OP(=O)(O)OC[C@H]1O[C@@H](n2cnc3c(N)ncnc32)[C@H](O)[C@@H]1OP(=O)(O)O [Octanoyl-CoA] |  |  | 18.8 ± 0.83 nmol NTB^2− min^−1 mg protein^−1 | 34% | 
12 | CCCCCCCC/C=C\CCCCCCCC(=O)SCCNC(=O)CCNC(=O)[C@H](O)C(C)(C)COP(=O)(O)OP(=O)(O)OC[C@H]1O[C@@H](n2cnc3c(N)ncnc32)[C@H](O)[C@@H]1OP(=O)(O)O [Oleyl-CoA] |  |  | 41.5 ± 3.1 nmol NTB^2− min^−1 mg protein^−1 | 76% | 
13 | CCC=O [Propanal] | 43 ± 6.0 nmol NADP^+ min^−1 mg proten^−1 | <1% |  |  | 
14 | CCCCCCCCCCCCCCCCCC(=O)SCCNC(=O)CCNC(=O)[C@H](O)C(C)(C)COP(=O)(O)OP(=O)(O)OC[C@H]1O[C@@H](n2cnc3c(N)ncnc32)[C@H](O)[C@@H]1OP(=O)(O)O [Stearoyl-CoA] |  |  | 37.6 ± 3.5 nmol NTB^2− min^−1 mg protein^−1 | 69% | 
15 | CC(C)O [isopropanol] |  |  |  |  | effect on FACoAR activity (M. aquaeolei VT8 FACoAR): inhibited activity
16 | OCCS [β-mercaptoethanol] |  |  |  |  | effect on FACoAR activity (M. aquaeolei VT8 FACoAR): inhibited activity
17 | Triton X-100 |  |  |  |  | effect on FACoAR activity (M. aquaeolei VT8 FACoAR): inhibited activity
18 | fatty acyl-CoA reductase (FACoAR) from M. aquaeolei VT8 (Marinobacter nauticus VT8) (protein) MNYFLTGGTGFIGRFLVEKLLARGGTVYVLVREQSQDKLERLRERWGADDKQVKAVIGDLTSKNLGIDAKTLKSLKGNIDHVFHLAAVYDMGADEEAQAATNIEGTRAAVQAAEAMGAKHFHHVSSIAAAGLFKGIFREDMFEEAEKLDHPYLRTKHESEKVVREECKVPFRIYRPGMVIGHSETGEMDKVDGPYYFFKMIQKIRHALPQWVPTIGIEGGRLNIVPVDFVVDALDHIAHLEGEDGNCFHLVDSDPYKVGEILNIFCEAGHAPRMGMRIDSRMFGFIPPFIRQSIKNLPPVKRITGALLDDMGIPPSVMSFINYPTRFDTRELERVLKGTDIEVPRLPSYAPVIWDYWERNLDPDLFKDRTLKGTVEGKVCVVTGATSGIGLATAEKLAEAGAILVIGARTKETLDEVAASLEAKGGNVHAYQCDFSDMDDCDRFVKTVLDNHGHVDVLVNNAGRSIRRSLALSFDRFHDFERTMQLNYFGSVRLIMGFAPAMLERRRGHVVNISSIGVLTNAPRFSAYVSSKSALDAFSRCAAAEWSDRNVTFTTINMPLVKTPMIAPTKIYDSVPTLTPDEAAQMVADAIVYRPKRIATRLGVFAQVLHALAPKMGEIIMNTGYRMFPDSPAAAGSKSGEKPKVSTEQVAFAAIMRGIYW |  |  |  |  | K0.5 ([4]; fatty aldehyde reduction): 25 µM; Km [4, 8]: 48 ± 7 µM; Vmax [4, 8]: 7.7±0.6 μmol min^−1 mg of protein^−1; Km [5]: 4.0 ± 0.2 µM; K0.5 ([6]; acyl-CoA reduction, data of both DTNB and NADPH assays): 4 µM; Km ([6]; other: FIG. 5, DTNB assay, Hill fit, substrate): 4 ± 0.3 µM
